What was measured:
Experiment in all cases: relative viability (nuclei count vs DMSO), 5 days (fraction); higher = more cells survive
EMC-BAC-2 = system: EMC-BAC-2
Procedure, shortened: (§1)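 For relative viability, nuclei counts in treated wells were divided by those in vehicle wells. Lung cancer cell lines had been pin-tool dosed in 1536-well plates the day after seeding and cultured for 5 days, then fixed and stained in one step (final 0.05% Triton X-100, 1% formaldehyde, 1 ug/ml Hoechst) and imaged at 4×. Doses were one drug alone or a fixed anchor-drug dose plus five library-drug doses (not always all listed) in √10 steps, and values are duplicate-plate medians.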

EPLC-272H = system: EPLC-272H
Procedure, shortened: as §1

H3255 = system: H3255
Procedure, shortened: as §1

HOP-62 = system: HOP-62
Procedure, shortened: as §1

LCLC-97TM1 = system: LCLC-97TM1
Procedure, shortened: as §1

LXF-289 = system: LXF-289
Procedure, shortened: as §1

NCI-H1563 = system: NCI-H1563
Procedure, shortened: as §1

NCI-H1734 = system: NCI-H1734
Procedure, shortened: as §1

NCI-H1915 = system: NCI-H1915
Procedure, shortened: as §1

NCI-H1993 = system: NCI-H1993
Procedure, shortened: as §1

NCI-H2009 = system: NCI-H2009
Procedure, shortened: as §1

NCI-H2023 = system: NCI-H2023
Procedure, shortened: as §1

NCI-H2085 = system: NCI-H2085
Procedure, shortened: as §1

NCI-H2126 = system: NCI-H2126
Procedure, shortened: as §1

NCI-H2347 = system: NCI-H2347
Procedure, shortened: as §1

NCI-H322M = system: NCI-H322M
Procedure, shortened: as §1

NCI-H647 = system: NCI-H647
Procedure, shortened: as §1

NCI-H661 = system: NCI-H661
Procedure, shortened: as §1

NCI-H727 = system: NCI-H727
Procedure, shortened: as §1

PC-14 = system: PC-14
Procedure, shortened: as §1

SK-LU-1 = system: SK-LU-1
Procedure, shortened: as §1

SW 1573 = system: SW 1573
Procedure, shortened: as §1

With Nc1ccn([C@@H]2O[C@H](CO)[C@@H](O)[C@@H]2O)c(=O)n1 [Cytarabine] + CCNC(=O)c1noc(-c2cc(C(C)C)c(O)cc2O)c1-c1ccc(CN2CCOCC2)cc1 [Luminespib] (partner 0.01 µM) the relative viability (EMC-BAC-2; first compound 0.005 µM) was 0.885, the relative viability (EMC-BAC-2; first compound 0.01581 µM) was 0.742 and the relative viability (EMC-BAC-2; first compound 0.05 µM) was 0.346. The relative viability (EMC-BAC-2; first compound 0.1581 µM) was 0.259, the relative viability (EMC-BAC-2; first compound 0.5 µM) was 0.244 and the relative viability (EPLC-272H; first compound 0.005 µM) was 0.433. For the same molecule, the relative viability (EPLC-272H; first compound 0.01581 µM) was 0.241, the relative viability (EPLC-272H; first compound 0.05 µM) was 0.194 and the relative viability (EPLC-272H; first compound 0.1581 µM) was 0.228. For the same molecule, the relative viability (EPLC-272H; first compound 0.5 µM) was 0.243, the relative viability (H3255; first compound 0.005 µM) was 0.98 and the relative viability (H3255; first compound 0.01581 µM) was 0.763. For the same molecule, the relative viability (H3255; first compound 0.05 µM) was 0.69, the relative viability (H3255; first compound 0.1581 µM) was 0.662 and the relative viability (H3255; first compound 0.5 µM) was 0.554. For the same molecule, the relative viability (HOP-62; first compound 0.005 µM) was 0.679, the relative viability (HOP-62; first compound 0.01581 µM) was 0.49 and the relative viability (HOP-62; first compound 0.05 µM) was 0.285. The relative viability (HOP-62; first compound 0.1581 µM) was 0.135, the relative viability (HOP-62; first compound 0.5 µM) was 0.135 and the relative viability (LCLC-97TM1; first compound 0.005 µM) was 0.742. The relative viability (LCLC-97TM1; first compound 0.01581 µM) was 0.69, the relative viability (LCLC-97TM1; first compound 0.05 µM) was 0.709 and the relative viability (LCLC-97TM1; first compound 0.1581 µM) was 0.318. It also gave a relative viability (LCLC-97TM1; first compound 0.5 µM) of 0.344, a relative viability (LXF-289; first compound 0.005 µM) of 0.673 and a relative viability (LXF-289; first compound 0.01581 µM) of 0.665. The relative viability (LXF-289; first compound 0.05 µM) was 0.43, the relative viability (LXF-289; first compound 0.1581 µM) was 0.266 and the relative viability (LXF-289; first compound 0.5 µM) was 0.149. For the same molecule, the relative viability (NCI-H1563; first compound 0.005 µM) was 0.628, the relative viability (NCI-H1563; first compound 0.01581 µM) was 0.506 and the relative viability (NCI-H1563; first compound 0.05 µM) was 0.432. For the same molecule, the relative viability (NCI-H1563; first compound 0.1581 µM) was 0.407, the relative viability (NCI-H1563; first compound 0.5 µM) was 0.455 and the relative viability (NCI-H1734; first compound 0.005 µM) was 0.251. It also gave a relative viability (NCI-H1734; first compound 0.01581 µM) of 0.162, a relative viability (NCI-H1734; first compound 0.05 µM) of 0.138 and a relative viability (NCI-H1734; first compound 0.1581 µM) of 0.139. The relative viability (NCI-H1734; first compound 0.5 µM) was 0.134, the relative viability (NCI-H1915; first compound 0.005 µM) was 0.622 and the relative viability (NCI-H1915; first compound 0.01581 µM) was 0.773. It also gave a relative viability (NCI-H1915; first compound 0.05 µM) of 0.871, a relative viability (NCI-H1915; first compound 0.1581 µM) of 0.486 and a relative viability (NCI-H1915; first compound 0.5 µM) of 0.435. It also gave a relative viability (NCI-H1993; first compound 0.005 µM) of 0.964, a relative viability (NCI-H1993; first compound 0.01581 µM) of 0.706 and a relative viability (NCI-H1993; first compound 0.05 µM) of 0.695. The relative viability (NCI-H1993; first compound 0.1581 µM) was 0.512, the relative viability (NCI-H1993; first compound 0.5 µM) was 0.525 and the relative viability (NCI-H2009; first compound 0.005 µM) was 0.995. The relative viability (NCI-H2009; first compound 0.01581 µM) was 1.06, the relative viability (NCI-H2009; first compound 0.05 µM) was 1.04 and the relative viability (NCI-H2009; first compound 0.1581 µM) was 0.775. The relative viability (NCI-H2009; first compound 0.5 µM) was 0.239, the relative viability (NCI-H2023; first compound 0.005 µM) was 0.604 and the relative viability (NCI-H2023; first compound 0.01581 µM) was 0.235. The relative viability (NCI-H2023; first compound 0.05 µM) was 0.19, the relative viability (NCI-H2023; first compound 0.1581 µM) was 0.0889 and the relative viability (NCI-H2023; first compound 0.5 µM) was 0.0897. For the same molecule, the relative viability (NCI-H2085; first compound 0.005 µM) was 0.426, the relative viability (NCI-H2085; first compound 0.01581 µM) was 0.459 and the relative viability (NCI-H2085; first compound 0.05 µM) was 0.455. For the same molecule, the relative viability (NCI-H2085; first compound 0.1581 µM) was 0.415, the relative viability (NCI-H2085; first compound 0.5 µM) was 0.339 and the relative viability (NCI-H2126; first compound 0.005 µM) was 0.789. The relative viability (NCI-H2126; first compound 0.01581 µM) was 0.86, the relative viability (NCI-H2126; first compound 0.05 µM) was 0.671 and the relative viability (NCI-H2126; first compound 0.1581 µM) was 0.53. For the same molecule, the relative viability (NCI-H2126; first compound 0.5 µM) was 0.427, the relative viability (NCI-H2347; first compound 0.005 µM) was 0.284 and the relative viability (NCI-H2347; first compound 0.01581 µM) was 0.402. For the same molecule, the relative viability (NCI-H2347; first compound 0.05 µM) was 0.39, the relative viability (NCI-H2347; first compound 0.1581 µM) was 0.255 and the relative viability (NCI-H2347; first compound 0.5 µM) was 0.411. The relative viability (NCI-H322M; first compound 0.005 µM) was 0.812, the relative viability (NCI-H322M; first compound 0.01581 µM) was 0.685 and the relative viability (NCI-H322M; first compound 0.05 µM) was 0.514. It also gave a relative viability (NCI-H322M; first compound 0.1581 µM) of 0.387, a relative viability (NCI-H322M; first compound 0.5 µM) of 0.351 and a relative viability (NCI-H647; first compound 0.005 µM) of 0.146. The relative viability (NCI-H647; first compound 0.01581 µM) was 0.111, the relative viability (NCI-H647; first compound 0.05 µM) was 0.112 and the relative viability (NCI-H647; first compound 0.1581 µM) was 0.0665. The relative viability (NCI-H647; first compound 0.5 µM) was 0.0757, the relative viability (NCI-H661; first compound 0.005 µM) was 0.805 and the relative viability (NCI-H661; first compound 0.01581 µM) was 0.873. For the same molecule, the relative viability (NCI-H661; first compound 0.05 µM) was 0.766, the relative viability (NCI-H661; first compound 0.1581 µM) was 0.511 and the relative viability (NCI-H661; first compound 0.5 µM) was 0.37. For the same molecule, the relative viability (NCI-H727; first compound 0.005 µM) was 0.22, the relative viability (NCI-H727; first compound 0.01581 µM) was 0.527 and the relative viability (NCI-H727; first compound 0.05 µM) was 0.475. The relative viability (NCI-H727; first compound 0.1581 µM) was 0.341, the relative viability (NCI-H727; first compound 0.5 µM) was 0.309 and the relative viability (PC-14; first compound 0.005 µM) was 0.172. It also gave a relative viability (PC-14; first compound 0.01581 µM) of 0.133, a relative viability (PC-14; first compound 0.05 µM) of 0.131 and a relative viability (PC-14; first compound 0.1581 µM) of 0.131. The relative viability (PC-14; first compound 0.5 µM) was 0.0979, the relative viability (SK-LU-1; first compound 0.005 µM) was 0.178 and the relative viability (SK-LU-1; first compound 0.01581 µM) was 0.183. It also gave a relative viability (SK-LU-1; first compound 0.05 µM) of 0.214, a relative viability (SK-LU-1; first compound 0.1581 µM) of 0.185 and a relative viability (SK-LU-1; first compound 0.5 µM) of 0.185. It also gave a relative viability (SW 1573; first compound 0.005 µM) of 0.375, a relative viability (SW 1573; first compound 0.01581 µM) of 0.228 and a relative viability (SW 1573; first compound 0.05 µM) of 0.285. For the same molecule, the relative viability (SW 1573; first compound 0.1581 µM) was 0.164 and the relative viability (SW 1573; first compound 0.5 µM) was 0.0905.

From the supplement of paper PMC10307832
